Literature values in US9617305B2 (priority 2011, dated 2017).
Where a SMILES comes first, the peptide text is derived from it. Bridges are numbered along the chain shown (N, C = ends).

Conditions: after oral administration at therapeutic dose levels

Q: Which “levels of linaclotide seen systemically” value does the source give for C[C@@H]1NC(=O)[C@@H]2CCCN2C(=O)[C@H](CC(N)=O)NC(=O)[C@@H]2CSSC[C@H](N)C(=O)N[C@H]3CSSC[C@H](NC1=O)C(=O)N[C@@H]([C@@H](C)O)C(=O)NCC(=O)N[C@H](C(=O)N[C@@H](Cc1ccc(O)cc1)C(=O)O)CSSC[C@H](NC(=O)[C@H](Cc1ccc(O)cc1)NC(=O)[C@H](CCC(=O)O)NC3=O)C(=O)N2 [linaclotide, Linaclotide] (H-CCEYCCNPACTGCY-OH; disulfide 1-6, 2-10, 5-13) here?
A: no detectable levels
